Data from patent publication US8252899B2, “Methods and compositions for obtaining high-resolution crystals of membrane proteins” (The Scripps Research Institute, priority 2007, dated 2012).

Tests used:
[1] = biological target: β2AR Val114^3.33 to alanine mutant (Homo sapiens, UniProt P07550, V114A); conditions: Chelikani et al. 2007; cited from earlier work
β2AR-T4L [2] = conditions: for λmax ± SD for β2AR-T4L: bimane emission, excitation 350 nm, saturating ligand; for λmax ± SD for β2AR-T4L / Intensity at λmax Ligand/Intensity at λmax none, β2AR-T4L: 15 min incubation; for Intensity at λmax Ligand/Intensity at λmax none, β2AR-T4L: bimane fluorescence, ratio to no-ligand control
wild-type β2AR = wild-type β2AR (Homo sapiens, UniProt P07550); test: Saturation binding of [3H]DHA to membranes from Sf9 cells expressing wild-type β2AR
β2AR-T4L [3] = test: Saturation binding of [3H]DHA to membranes from Sf9 cells expressing β2AR-T4L; parameters: species or system human
Description: FIG. 15. Affinity curves for adrenergic ligands binding to β2AR-T4L and wildtype β2AR. […] Binding experiments on membranes isolated from Sf9 insect cells expressing the receptors were performed as described above.
Membrane preparation from baculovirus-infected Sf9 cells was performed as described previously (Swaminath, et al., Mol Pharmacol 61, 65 (2002)). For each binding reaction, membranes containing 0.7 μg total membrane protein were used. Saturation binding of [^3H]-dihydroalprenolol (DHA) was measured by incubating membranes resuspended in 500 μl binding buffer (75 mM Tris, 12.5 mM MgCl2, 1 mM EDTA, pH 7.4, supplemented with 0.4 mg/ml BSA) with 12 different concentrations of [^3H]DHA (Perkin Elmer) between 20 pM and 10 nM. After 1 h incubation with shaking at 230 rpm, membranes were filtered from the binding reactions with a Brandel harvester, washed with binding buffer, and measured for bound [^3H]DHA with a Beckman LS6000 scintillation counter. […] For competition binding, membranes resuspended in 500 μl binding buffer were incubated with 0.5 nM [^3H]DHA plus increasing concentrations of the competing ligand (all compounds were purchased from Sigma). […] Each data point in the curves in FIGS. 2A and S1 represents the mean of three separate experiments, each done in triplicate. Binding data were analyzed by nonlinear regression analysis using Graphpad Prism.

Structure (SMILES)	ligand-induced change of bimane fluorescence (in words), β2AR-T4L (β2AR-T4L [2])	λmax ± SD for β2AR-T4L (β2AR-T4L [2]) [nm]	Intensity at λmax Ligand/Intensity at λmax none, β2AR-T4L (β2AR-T4L [2])	also measured
CNC[C@H](O)c1ccc(O)c(O)c1 [(−)-epinephrine]				lowering of affinity by Val114 to alanine mutation [1]: 300 fold
CC(C)NC[C@H](O)c1ccc(O)c(O)c1 [(−)-isoproteronol, (−)-isoproterenol]	qualitatively similar decrease in intensity and rightward shift in λmax	455 ± 2	0.824 ± 0.006	
CCCc1ccccc1OCC(O)CNC(C)C (centres unmarked) [[^3H]DHA, [^3H]-dihydroalprenolol]				Bmax (wild-type β2AR): 30.0 ± 0.5 pmol/mg; Kd (wild-type β2AR; read-out: Kd ± SE): 0.161 ± 0.012 nM; affinity for β2AR-T4L relative to wild-type β2AR (saturation binding) (β2AR-T4L [3]): wild-type affinity; Kd (β2AR-T4L [3]; saturation binding, β2AR-T4L, Sf9 membranes, read-out: Kd ± SE): 0.18 ± 0.016 nM
CC(C)(C)NCC(O)c1ccc(O)c(CO)c1 (centres unmarked) [salbutamol]	larger responses	449 ± 1	0.928 ± 0.009	
